{"source": "patent US3969523A", "about": "“Antiphlogistic pharmaceutical compositions containing a 1-(nicotinoyl or isonicotinoyl)-3-biphenylyl-alkanone-(2)” (Boehringer Ingelheim GmbH, priority 1973, dated 1976)", "key": {"[1]": {"system": "kaolin-induced edema of the hind paw of the rat", "experiment": "Antiphlogistic activity: antiexsudative effect on kaolin-induced edema of the hind paw of the rat, oral", "type": "in vivo", "settings": "p.o., dose leading to 35% reduction of swelling, graphically determined", "protocol": "(§1) The antiphlogistic activity was tested to determine the antiexsudative effect on the kaolin-induced edema (see Hillebrecht in Arzneimittelforschung 4, 607 - 614 (1954) and the carrageenin-induced edema (see Winter in Proc. Soc. Exper. Biol. Med. 111, 544 (1962)) of the hind paw of the rat after oral administration of at least 3 doses to at least 10 animals per dose. The dose leading to a 35% reduction of the swelling (ED35) was graphically determined."}, "[2]": {"system": "carrageenin-induced edema of the hind paw of the rat", "experiment": "Antiphlogistic activity: antiexsudative effect on carrageenin-induced edema of the hind paw of the rat, oral", "type": "in vivo", "settings": "p.o., dose leading to 35% reduction of swelling, graphically determined", "protocol": "as §1"}, "in vivo": {"experiment": "in vivo", "settings": "rat, po", "protocol": "The ulcerogenic activity in the rat was determined after oral administration of the compound for 3 times after 24 hours each time. The animals were killed 4 hours after that, and the number of the animals having an ulcer was recorded."}, "[3]": {"experiment": "Peroral acute toxicity in rats", "settings": "in vivo, po; rat; 50% died within 14 days; Litchfield and Wilcoxon", "protocol": "The peroral acute toxicity of the compounds was determined on groups of 10 rats each."}}}
{"smiles": "CC(C(=O)COC(=O)c1ccncc1)c1ccc(-c2ccccc2F)cc1", "note": "(stereo not shown) [A, 1-isonicotinoyloxy-3-(2'-fluoro-4\"-biphenylyl)-butanone-(2)]", "values": [{"measurement": "ED35", "setting": "[1]", "result": 14, "unit": "mg/kg"}, {"measurement": "ED35", "setting": "[2]", "result": 22.5, "unit": "mg/kg"}, {"measurement": "TD50", "setting": "in vivo", "result": 71, "unit": "mg/kg"}, {"measurement": "LD50 at 336 h", "setting": "[3]", "result": 1170, "unit": "mg/kg"}]}
